These are literature values, as cited in patent US5536812A, “Calcitonin analogue and use thereof” (Sanwa Kagaku Kenkyusho Co., Ltd., priority 1994, dated 1996).

One series has as its system Wister male rat. The conditions noted are these: standard manufactured by Penisula Lab. Inc., Lot No. 015405.
The conditions of series [1]: analogue of Jap. Pat. Hei 4-59795(A) / EP-A-0 464 549.

For the substance eel calcitonin, the “Activity of the eel calcitonin standard” value in the series on Wister male rat was 4500 IU/mg. Turning to salmon I calcitonin-Hse^33 -NH2, the “biological activities compared with native Salmon I calcitonin” value in series [1] was “substantially same with the native Salmon I calcitonin”.
